# From patent publication US11267800B2, “Cyclohexyl acid triazole azines as LPA antagonists” (BRISTOL-MYERS SQUIBB COMPANY, priority 2017, dated 2022)
# Counter-ions that a name gives are not always drawn.
# Biological target: T1, human LPA1 (Homo sapiens, UniProt Q92633)
# T1 construct: expressed in transfected cells; host or cells: Chinese hamster ovary (CHO) cells
# Assay: LPA1 functional antagonist assay (calcium flux)
# Assay type: cell-based
# Details: CHO cells overexpressing human LPA1; inhibition of calcium flux induced by 10 nM LPA; read-out: hLPA1 IC50
# In short: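 IC50 values come from 4-parameter logistic fits and mark 50% block of the calcium flux evoked by 10 nM LPA. Human LPA1-overexpressing CHO cells were calcium-dye loaded at 37 °C, then given test compound (0.08 nM–5 μM, 0.5% DMSO, HEPES-buffered HBSS with 0.1% fatty-acid-free BSA) for 20 min at room temperature before agonist.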
# T1 sequence (Q92633 whole entry): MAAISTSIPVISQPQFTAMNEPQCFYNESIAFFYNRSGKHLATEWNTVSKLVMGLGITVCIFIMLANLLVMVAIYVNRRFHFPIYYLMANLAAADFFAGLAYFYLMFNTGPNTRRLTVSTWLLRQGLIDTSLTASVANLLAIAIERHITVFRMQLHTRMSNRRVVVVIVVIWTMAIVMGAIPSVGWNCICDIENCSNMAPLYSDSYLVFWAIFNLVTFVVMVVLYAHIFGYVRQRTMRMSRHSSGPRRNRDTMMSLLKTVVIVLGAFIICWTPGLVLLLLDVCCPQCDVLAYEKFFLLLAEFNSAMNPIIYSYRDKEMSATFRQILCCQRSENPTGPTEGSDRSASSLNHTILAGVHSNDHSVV
row,IC50 [nM],SMILES
1,106,Cc1nc(-c2nnn(C)c2CNc2ncnc(C(C)C)n2)ccc1O[C@H]1CCC[C@H](C(=O)O)C1 [Example 181]
2,693,Cc1nc(-c2nnn(C)c2CNc2ncnc(C(C)(C)C)n2)ccc1O[C@H]1CCC[C@H](C(=O)O)C1 [Example 182]
3,54,Cc1nc(-c2nnn(C)c2CNc2ncnc(C3CCC3)n2)ccc1O[C@H]1CCC[C@H](C(=O)O)C1 [Example 183]
4,90,Cc1nc(-c2nnn(C)c2CNc2ncnc(C3CCCC3)n2)ccc1O[C@H]1CCC[C@H](C(=O)O)C1 [Example 184]
5,288,Cc1nc(-c2nnn(C)c2CNc2ncnc(C3CCCCC3)n2)ccc1O[C@H]1CCC[C@H](C(=O)O)C1 [Example 185]
6,717,Cc1nc(-c2nnn(C)c2CNc2nc(O)nc(C3CCCCC3)n2)ccc1O[C@H]1CCC[C@H](C(=O)O)C1 [Example 186]
7,48,"Cc1nc(-c2nnn(C)c2CNc2ncnc(C3CC3)n2)ccc1O[C@H]1CCC[C@H](C(=O)O)C1 [Example 187, (1S,3S)-3-((6-(5-(((4-Cyclopropyl-1,3,5-triazin-2-yl)amino)methyl)-1-methyl-1H-1,2,3-triazol-4-yl)-2-methylpyridin-3-yl)oxy)cyclohexane-1-carboxylic acid, bis TFA Salt]"
8,138,"Cc1nc(NCc2c(-c3ccc(O[C@H]4CCC[C@H](C(=O)O)C4)c(C)n3)nnn2C)nc(C2CC2)n1 [Example 188, (1S,3S)-3-((6-(5-(((4-Cyclopropyl-6-methyl-1,3,5-triazin-2-yl)amino)methyl)-1-methyl-1H-1,2,3-triazol-4-yl)-2-methylpyridin-3-yl)oxy)cyclohexane-1-carboxylic acid, bis TFA Salt]"
9,108,"CCCCc1cnnc(NCc2c(-c3ccc(O[C@H]4CCC[C@H](C(=O)O)C4)c(C)n3)nnn2C)c1 [Example 189, (1S,3S)-3-((6-(5-(((5-Butylpyridazin-3-yl)amino)methyl)-1-methyl-1H-1,2,3-triazol-4-yl)-2-methylpyridin-3-yl)oxy)cyclohexane-1-carboxylic acid, bis TFA salt]"
10,53,"Cc1nc(-c2nnn(C)c2CNc2nncc(-c3ccccc3)n2)ccc1O[C@H]1CCC[C@H](C(=O)O)C1 [Example 192, (1S,3S)-3-((2-Methyl-6-(1-methyl-5-(((5-phenyl-1,2,4-triazin-3-yl)amino)methyl)-1H-1,2,3-triazol-4-yl)pyridin-3-yl)oxy)cyclohexane-1-carboxylic acid, bis TFA Salt]"
11,6.8,"CCCCc1cnnc(NCc2c(-c3ccc(O[C@H]4CCC[C@H](C(=O)O)C4)c(C)n3)nnn2C)n1 [Example 193, (1S,3S)-3-((6-(5-(((5-Butyl-1,2,4-triazin-3-yl)amino)methyl)-1-methyl-1H-1,2,3-triazol-4-yl)-2-methylpyridin-3-yl)oxy)cyclohexane-1-carboxylic acid, bis TFA]"
12,63,"CCc1ncnc(NCc2c(-c3ccc(O[C@H]4CCC[C@H](C(=O)O)C4)c(C)n3)nnn2C)n1 [Example 194, (1S,3S)-3-((6-(5-(((4-Ethyl-1,3,5-triazin-2-yl)amino)methyl)-1-methyl-1H-1,2,3-triazol-4-yl)-2-methyl-pyridin-3-yl)oxy)cyclohexane-1-carboxylic acid]"
13,225,"CCCc1ncnc(NCc2c(-c3ccc(O[C@H]4CCC[C@H](C(=O)O)C4)c(C)n3)nnn2C)n1 [Example 195, (1S,3S)-3-((2-Methyl-6-(1-methyl-5-(((4-propyl-1,3,5-triazin-2-yl)amino)methyl)-1H-1,2,3-triazol-4-yl)pyridin-3-yl)oxy)cyclohexane-1-carboxylic acid]"
14,2190,"Cc1ncnc(NCc2c(-c3ccc(O[C@H]4CCC[C@H](C(=O)O)C4)c(C)n3)nnn2C)n1 [Example 196, (1S,3S)-3-((2-Methyl-6-(1-methyl-5-(((4-methyl-1,3,5-triazin-2-yl)amino)methyl)-1H-1,2,3-triazol-4-yl)pyridin-3-yl)oxy)cyclohexane-1-carboxylic acid]"
15,29,"CCCCc1ncnc(NCc2c(-c3ccc(O[C@H]4CCC[C@H](C(=O)O)C4)c(C)n3)nnn2C)n1 [Example 199, (1S,3S)-3-((6-(5-(((4-Butyl-1,3,5-triazin-2-yl)amino)methyl)-1-methyl-1H-1,2,3-triazol-4-yl)-2-methyl-pyridin-3-yl)oxy)cyclohexane-1-carboxylic acid]"
16,77,"Cc1nc(-c2nnn(C)c2CNc2ncnc(CC(C)C)n2)ccc1O[C@H]1CCC[C@H](C(=O)O)C1 [Example 200, (1S,3S)-3-((6-(5-(((4-Isobutyl-1,3,5-triazin-2-yl)amino)methyl)-1-methyl-1H-1,2,3-triazol-4-yl)-2-methyl-pyridin-3-yl)oxy)cyclohexane-1-carboxylic acid]"
17,105,"COc1nc(NCc2c(-c3ccc(O[C@H]4CCC[C@H](C(=O)O)C4)c(C)n3)nnn2C)nc(C2CC2)n1 [Example 201, (1S,3S)-3-((6-(5-(((4-Cyclopropyl-6-methoxy-1,3,5-triazin-2-yl)amino)methyl)-1-methyl-1H-1,2,3-triazol-4-yl)-2-methylpyridin-3-yl)oxy)cyclohexane-1-carboxylic acid, bis TFA Salt]"
18,32,"CCOc1nc(NCc2c(-c3ccc(O[C@H]4CCC[C@H](C(=O)O)C4)c(C)n3)nnn2C)nc(C2CC2)n1 [Example 202, (1S,3S)-3-((6-(5-(((4-Cyclopropyl-6-ethoxy-1,3,5-triazin-2-yl)amino)methyl)-1-methyl-1H-1,2,3-triazol-4-yl)-2-methylpyridin-3-yl)oxy) cyclohexane-1-carboxylic acid]"
19,59,"CCc1nc(CC)nc(NCc2c(-c3ccc(O[C@H]4CCC[C@H](C(=O)O)C4)c(C)n3)nnn2C)n1 [Example 203, (1S,3S)-3-((6-(5-(((4,6-Diethyl-1,3,5-triazin-2-yl)amino)methyl)-1-methyl-1H-1,2,3-triazol-4-yl)-2-methyl-pyridin-3-yl)oxy)cyclohexane-1-carboxylic acid]"
20,106,"CCC(C)Cc1ncnc(NCc2c(-c3ccc(O[C@H]4CCC[C@H](C(=O)O)C4)c(C)n3)nnn2C)n1 (stereo partly drawn) [Example 204, (1S,3S)-3-((2-Methyl-6-(1-methyl-5-(((4-(2-methylbutyl)-1,3,5-triazin-2-yl)amino)methyl)-1H-1,2,3-triazol-4-yl)pyridin-3-yl)oxy)cyclohexane-1-carboxylic acid]"
21,40,"Cc1nc(-c2nnn(C)c2CNc2ncnc(CCC(C)C)n2)ccc1O[C@H]1CCC[C@H](C(=O)O)C1 [Example 205, (1S,3S)-3-((6-(5-(((4-Isopentyl-1,3,5-triazin-2-yl)amino)methyl)-1-methyl-1H-1,2,3-triazol-4-yl)-2-methyl-pyridin-3-yl)oxy)cyclohexane-1-carboxylic acid]"
22,120,"Cc1nc(-c2nnn(C)c2CNc2ncnc(CCC(C)(C)C)n2)ccc1O[C@H]1CCC[C@H](C(=O)O)C1 [Example 206, (1S,3S)-3-((6-(5-(((4-(3,3-Dimethylbutyl)-1,3,5-triazin-2-yl)amino)methyl)-1-methyl-1H-1,2,3-triazol-4-yl)-2-methylpyridin-3-yl)oxy)cyclohexane-1-carboxylic acid]"
23,53,"Cc1nc(-c2nnn(C)c2CNc2ncnc(C3(C)CC3)n2)ccc1O[C@H]1CCC[C@H](C(=O)O)C1 [Example 207, (1S,3S)-3-((2-Methyl-6-(1-methyl-5-(((4-(1-methylcyclopropyl)-1,3,5-triazin-2-yl)amino)methyl)-1H-1,2,3-triazol-4-yl)pyridin-3-yl)oxy) cyclohexane-1-carboxylic acid]"
24,89,"CCOc1ncnc(NCc2c(-c3ccc(O[C@H]4CCC[C@H](C(=O)O)C4)c(C)n3)nnn2C)n1 [Example 208, (1S,3S)-3-((6-(5-(((4-Ethoxy-1,3,5-triazin-2-yl)amino)methyl)-1-methyl-1H-1,2,3-triazol-4-yl)-2-methyl-pyridin-3-yl)oxy)cyclohexane-1-carboxylic acid]"
25,62,"CCCCc1nc(C)nc(NCc2c(-c3ccc(O[C@H]4CCC[C@H](C(=O)O)C4)c(C)n3)nnn2C)n1 [Example 209, (1S,3S)-3-((6-(5-(((4-Butyl-6-methyl-1,3,5-triazin-2-yl)amino)methyl)-1-methyl-1H-1,2,3-triazol-4-yl)-2-methylpyridin-3-yl)oxy)cyclohexane-1-carboxylic acid]"
26,102,"Cc1nc(-c2nnn(C)c2CNc2ncnc(OC3CC3)n2)ccc1O[C@H]1CCC[C@H](C(=O)O)C1 [Example 210, (1S,3S)-3-((6-(5-(((4-cyclopropoxy-1,3,5-triazin-2-yl)amino)methyl)-1-methyl-1H-1,2,3-triazol-4-yl)-2-methylpyridin-3-yl)oxy)cyclohexane-1-carboxylic acid]"

row,SMILES,IC50 [nM]
1,"Cc1nc(-c2nnn(C)c2CNc2cc(OC3CCC3)cnn2)ccc1O[C@H]1CCC[C@H](C(=O)O)C1 [Example 190, (1S,3S)-3-((6-(5-(((5-Cyclobutoxypyridazin-3-yl)amino)methyl)-1-methyl-1H-1,2,3-triazol-4-yl)-2-methylpyridin-3-yl)oxy)cyclohexane-1-carboxylic acid, bis TFA Salt]",187
2,"Cc1nc(-c2nnn(C)c2CNc2nnccc2OC2CCC2)ccc1O[C@H]1CCC[C@H](C(=O)O)C1 [Example 191, (1S,3S)-3-((6-(5-(((4-Cyclobutoxypyridazin-3-yl)amino)methyl)-1-methyl-1H-1,2,3-triazol-4-yl)-2-methylpyridin-3-yl)oxy)cyclohexane-1-carboxylic acid, bis TFA Salt]",103
3,"Cc1nc(-c2nnn(C)c2CNc2ncnc(OC3CCC3)n2)ccc1O[C@H]1CCC[C@H](C(=O)O)C1 [Example 211, (1S,3S)-3-((6-(5-(((4-cyclobutoxy-1,3,5-triazin-2-yl)amino)methyl)-1-methyl-1H-1,2,3-triazol-4-yl)-2-methylpyridin-3-yl)oxy)cyclohexane-1-carboxylic acid]",103
